# According to patent US20090012179A1, “Use of Tyrphostins to Stimulate Neurite Outgrowth” (priority 2004, published 2009):
# Entries after “also recorded” stand apart in the source; their conditions may differ.
# Columns and labels:
# [1] = test system: ERK; assay: ERK activation in NS20Y neuroblastoma cells, immunoblotting for dually phosphorylated ERK; assay type: cell-based, mouse; conditions: for Effect of inhibitor pretreatment on A9-stimulated ERK activation: A9 1 μM, 45 minutes; for ERK activation: dually phosphorylated ERK by immunoblotting
# [2] = test system: SH-SY5Y cells; assay: Neurite length in NGF-treated SH-SY5Y neuroblastoma cells; assay type: cell-based, human
# Protocol: Analysis of neurite length in SH-SY5Y neuroblastoma cells: SH-SY5Y neuroblastoma cells develop axonal-like processes on treatment with NGF. For analysis of process length, cells (20 fields/well) are randomly photographed at 96 and 168 hours. Neurite lengths are measured on photographic prints using a Houston Instrument HI-PAD digitizing tablet connected to a computer with appropriate software (Bioquant IV); only processes more than twice the cell body length are measured. Data from identically treated wells are combined. […] Histograms are compared using a Mann-Whitney U test (α=0.05), which makes no assumptions about the shape of the distribution.
# As disclosed herein, high and sustained ERK activation induces neurite growth in […] neuroblastoma cells and protects neuronal cells from neurotoxins. To test this, SH-SY5Y human neuroblastoma cells were used, which can be induced into neuron-like phenotype by NGF treatment. This is an established method for measuring neurite growth-promoting activity in vitro in Dr. Gold's lab (Gold et al., Neurosignals. 13:122-129, 2004; Gold et al., Exp. Neurol. 147:269-278, 1997). […] Representative micrographs at 168 hours for vehicle (control), NGF (10 ng/ml), and NGF (10 ng/ml) plus A9 (100 nM) are shown in FIG. 5B.
# [3] = target: T1, PKCζ (Homo sapiens, UniProt Q05513); conditions: read-out: IC50 for activation of PKCζ; cited from earlier work
# T1 sequence (Q05513 1-592): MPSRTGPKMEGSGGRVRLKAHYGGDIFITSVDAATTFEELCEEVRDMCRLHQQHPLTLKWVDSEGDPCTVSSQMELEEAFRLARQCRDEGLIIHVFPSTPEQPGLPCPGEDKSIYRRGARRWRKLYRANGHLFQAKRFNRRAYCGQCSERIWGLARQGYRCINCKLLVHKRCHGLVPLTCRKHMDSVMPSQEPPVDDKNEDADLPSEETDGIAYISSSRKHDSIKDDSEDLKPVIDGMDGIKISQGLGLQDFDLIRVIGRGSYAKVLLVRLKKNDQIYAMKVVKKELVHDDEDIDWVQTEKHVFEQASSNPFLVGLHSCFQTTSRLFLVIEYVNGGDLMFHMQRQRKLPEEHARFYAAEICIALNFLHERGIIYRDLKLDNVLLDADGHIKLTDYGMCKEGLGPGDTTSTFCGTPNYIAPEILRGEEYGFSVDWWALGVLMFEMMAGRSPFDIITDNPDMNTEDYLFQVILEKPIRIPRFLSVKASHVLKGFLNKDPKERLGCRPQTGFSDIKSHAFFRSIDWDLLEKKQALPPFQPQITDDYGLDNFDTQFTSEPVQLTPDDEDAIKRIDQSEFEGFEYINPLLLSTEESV
# [4] = test system: ERK; conditions: NS20Y cells; previous study; cited from earlier work
Molecule,Effect of inhibitor pretreatment on A9-stimulated ERK activation [1],ERK activation [1],other results
"COc1cccc(-c2cc(=O)c3ccccc3o2)c1N [PD98059, reference compound]",prevented A9 from stimulating ERK activation,–,Effect of MEK inhibitor on A9-induced neurite outgrowth ([2]; SH-SY5Y cells): did inhibit A9-induced neurite outgrowth
"CN(C)CCCn1cc(C2=C(c3c[nH]c4ccccc34)C(=O)NC2=O)c2ccccc21 [BisI, bisindolylmaleimide I]",failed to prevent A9-stimulated ERK activity,–,IC50 [3]: 5.8 µM
CC(C)(C)c1cc(/C=C(\C#N)C(N)=S)cc(C(C)(C)C)c1O [AG879],–,little or no effect,ERK stimulation ([1]; at 0.1 μM): moderate stimulation of ERK; ERK stimulation ([1]; at 1 μM): showed no effect
N#CC(C#N)=Cc1cc(O)c(O)c(O)c1 [AG82],did not prevent the effect of A9,did not stimulate ERK,–
Cc1cc2ncc(-c3ccccc3)nc2cc1C [AG1295],–,did not stimulate ERK; also recorded: little or no effect,–
CN[C@@H]1C[C@H]2O[C@@](C)([C@@H]1OC)n1c3ccccc3c3c4c(c5c6ccccc6n2c5c31)C(=O)NC4 [stauosporine],prevented A9 from stimulating ERK activation,–,–
N#CC(=Cc1ccc2[nH]ccc2c1)C(N)=C(C#N)C#N [AG370],–,moderate stimulation of ERK; also recorded: little or no effect,–
NGF: nerve growth factor,–,–,"Development of axonal-like processes ([2]; SH-SY5Y, NGF 10 ng/ml alone): developed long axonal-like processes"
CC(C)(C)n1nc(-c2ccc(Cl)cc2)c2c(N)ncnc21 [PP2],failed to prevent A9-stimulated ERK activity,–,Block of ERK activation induced by quinpirole [4]: block ERK activation induced by quinpirole
